≈ marks a conversion by molar mass, not a printed value. Like-named read-outs stand apart in the source and are kept apart here.
Experiments:
S. aureus strain MW2 = assay: Minimal inhibitory concentration (MIC) assay; format: cell-based; settings: for antimicrobial activity: S. aureus MW2, in words; for fold decrease in antimicrobial activity (fold higher MIC) vs. parent compound CD437: relative to CD437; for MIC: growing MRSA MW2 cells
Text: Bacterial strains, growth conditions and persister isolation. Methicillin-resistant S. aureus (MRSA) strain MW2 BAA-1707, the VanA-type vancomycin-resistant S. aureus strain VRS1, 11 clinical S. aureus isolates 8 clinical Enterococcus faecium isolates (including VanB-type VRE isolates, C68 and WB312, and a VanA-type VRE isolate WC196), Klebsiella pneumoniae WGLW2 (BEI Resources, Manassas, VA, USA), Acinetobacter baumannii ATCC 17978, Pseudomonas aeruginosa PA14, and Enterobacter aerogenes ATCC 13048 were used to test antimicrobial activity. S. aureus and E. faecium strains were grown in tryptic soy broth (TSB) (BD, Franklin Lakes, NJ, USA) or brain-heart infusion (BHI) broth (BD, Franklin Lakes, NJ, USA), respectively at 37° C. K. pneumoniae, A. baumannii, P aeruginosa, and E. aerogenes were grown in Luria Bertani (LB) broth (BD, Franklin Lakes, NJ, USA).
(§1) Minimal inhibitory concentration (MIC) assay. The MICs of antibiotics were determined by the standard micro-dilution method recommended by the Clinical and Laboratory Standards Institute. The assay was conducted in triplicate.

MRSA MW2 persisters = assay: Persister killing assay; format: cell-based, S. aureus; settings: Staphylococcus aureus; MRSA MW2 persisters; read-out: MIC against MRSA persisters
Procedure: Persister killing assay. […] Persistency of stationary-phase S. aureus VRS1 was evaluated by treating with 100×MIC daptomycin and 100×MIC linezolid, because the strain is resistant to vancomycin, gentamicin, ciprofloxacin, and rifampicin. We prepared persister cells of the 13 S. aureus strains by growing cultures overnight to stationary phase at 37° C. at 225 rpm. The overnight cultures were washed three times with PBS and diluted to ˜5×10^7 ? CFU/ml with the same buffer. 2 ml of the persister suspension containing appropriate concentrations of antibiotics was added to the wells of a 96-well assay block (Corning Costar 3960) and incubated at 37° C., with shaking at 225 rpm. At specific times, 400 μl samples were removed and washed once with PBS to remove the antibiotic. The samples were serially diluted 10^5 fold with PBS and spot-plated onto TSA plates. After incubating the plates overnight (˜18 h) at 37° C., the colonies were counted to enumerate the number of cells. These experiments were conducted in triplicate.

human erythrocytes = assay: Human blood hemolysis; format: cell-based; settings: compared with CD437, in words
Procedure: Human blood hemolysis. Hemolytic activity of retinoids on human erythrocytes was evaluated using a previously described method with modifications. 10% human erythrocytes were purchased from Rockland Immunochemicals (Limerick, PA, USA). The erythrocytes were diluted to 4% with PBS, and 100 μl was added to 100 μl of two-fold serial dilutions of compounds in PBS, 0.2% DMSO (negative control), or 2% Triton-X 100 (positive control) in a 96-well plate. The plate was incubated at 37° C. for 1 h and then centrifuged at 500×g for 5 min. 100 μl of the supernatant was transferred to a fresh 96-well plate and absorbance of supernatants was measured at 540 nm. Percent hemolysis was calculated using the following equation: (A540 nm of compound treated sample−A540 nm of 0.1% DMSO treated sample)/(A540 nm of 1% Triton X-100 treated sample−A540 nm of 0.1% DMSO treated sample)×100. HC50 (concentration of compound causing 50% hemolysis) was determined using SigmaPlot 10.0 (Systat Software Inc., San Jose, CA, USA).

rat primary hepatocytes = assay: Hepatotoxicity in primary hepatocytes; format: cell-based; settings: 24 h, compared with CD437, in words
Procedure: Cytotoxicity. Cryopreserved rat and human primary hepatocytes were purchased from the Cell Resource Core at Massachusetts General Hospital (Boston, MA, USA). The hepatocytes were cultured in a collagen sandwiched configuration in 24-well plates, as described previously. Briefly, 4×10^5 live cells were seeded in 24-well plates coated with rat tail collagen type I. Plates were incubated in a humidified 5% CO2 incubator at 37° C. for 4 h to allow cells to attach to the collagen gel. The cells were washed and then cultured in 0.5 ml standard hepatocyte culture medium consisting of pre-warmed Dulbecco's modified Eagle's medium (DMEM) media supplemented with 10% FBS, 0.5 U/ml insulin, 14 ng/ml glucagon, 20 ng/ml EGF, 7.5 μg/ml hydrocortisone and 200 U/ml penicillin-streptomycin. The cell cultures were incubated in a humidified 5% CO2 incubator at 37° C. At 24 h after seeding the cells, a top layer of collagen gel was deposited on the hepatocytes attached to the bottom collagen layer and incubated for additional 24 h. For cytotoxicity tests, HepG2, RPTEC, and NHEK were cultured at 70-80% confluence in tissue culture treated 96-well plates in a volume of 100 μl/well corresponding culture media. […] WST-1 reduction was measured at 450 nm. The percent fluorescence relative to that of the no-treatment control was calculated. […]

[1] = tested on: Cutibacterium (Propionibacterium) acnes; assay: Growth inhibition / MIC against P. acnes; format: cell-based; settings: in words (FIG. 11)
Procedure: as §1
More specifically, uptake of SYTOX Green by Cutibacterium (Propionibacterium) acnes cells treated with retinoids CD437 and Analog 2 increased, indicating higher permeability (FIG. 12; individual data points (n=3 biologically independent samples) and means are shown).

[2] = tested on: Cutibacterium (Propionibacterium) acnes; assay: Morphology of treated P. acnes bacteria; format: cell-based; settings: in words (FIG. 13)
[3] = in words; cited from earlier work
Maximum tolerated dose = format: in vivo; settings: mice, every 12 h for 3 days; Analog 2 10-80 mg/kg i.p., vancomycin 25 mg/kg i.p.; P>0.7
Procedure: Maximum tolerated dose. Six-week-old female CD1 ICR outbred mice (20-25 g) were obtained from Charles River Laboratories (Wilmington, MA, USA). Analog 2 was dissolved in a 1:1 solution of Kolliphor EL (Sigma-Aldrich, St Louis, MO, USA) and ethanol and then diluted 1:10 in saline to a final concentration of 4 mg/ml. Groups of mice (n=6) were treated with 10, 20, 40, 80 mg/kg Analog 2 i.p. or vancomycin (25 mg/kg) every 12 h for 3 days. Control mice were injected with 400 μl of 10% Kolliphor EL/ethanol in saline i.p. every 12 h for 3 days. Mice were closely monitored until they were euthanized at 72 h from the first infection. After euthanizing mice, blood was collected by cardiac puncture. All samples were stored at 4° C. until for analysis. Serum was analyzed for alanine aminotransferase and urea nitrogen content with commercially available kits, following the manufacturer's protocol (Pointe Scientific, Canton, MI, USA). No statistical methods were used to predetermine samples size. The experiments were not randomized, and investigators were not blinded to allocation during experiments and outcome assessment. This study and all experimental protocols were approved by the Rhode Island Hospital Institutional Animal Care and Use Committee (RIH IACUC) and conducted in accordance with the Animal Welfare Act and National Institutes of Health guidelines for animal care and use. Statistical significance among each group was analyzed by one-way ANOVA with post-hoc Tukey test using PASW Statistics 18 (SPSS Inc. Chicago, IL, USA) and GraphPad Prism 7 (GraphPad Software, La Jolla, CA, USA).

[4] = Staphylococcus aureus, read-out: MIC

Question: Which antimicrobial activity (S. aureus strain MW2) does the source give for NC(=O)c1ccc2cc(-c3ccc(O)c(C45CC6CC(CC(C6)C4)C5)c3)ccc2c1 [Analog 3, 6-(3-(adamantan-1-yl)-4-hydroxyphenyl)-2-naphthamide] here?
Answer: comparatively low

Question: For COc1ccc(-c2ccc3cc(CO)ccc3c2)cc1C12CC3CC(CC(C3)C1)C2 [Analog 6, (6-(3-(adamantan-1-yl)-4-methoxyphenyl)naphthalen-2-yl)methanol], which antimicrobial activity (S. aureus strain MW2) is on record?
Answer: eliminated

Question: Which “fold decrease in antimicrobial activity (fold higher MIC) vs. parent compound CD437” value (S. aureus strain MW2; MRSA MW2) does the source give for O=C(O)c1ccc2cc(-c3ccc(O)c(Cc4ccccc4)c3)ccc2c1 [Analog 9, 6-(3-benzyl-4-hydroxyphenyl)-2-naphthoic acid] here?
Answer: 2 fold

Question: And the MIC (S. aureus strain MW2; [4])?
Answer: 2 µg/mL (≈ 5.64 µM)

Question: And the MIC (MRSA MW2 persisters)?
Answer: 16 µg/mL (≈ 45.1 µM)

Question: And the hemolytic activity (human erythrocytes)?
Answer: similar

Question: And the hepatotoxicity (rat primary hepatocytes)?
Answer: similar

Question: What does the source list for O=C(O)c1ccc2cc(-c3cc(C45CC6CC(CC(C6)C4)C5)ccc3O)ccc2c1 [Analog 10, 6-(5-(adamantan-1-yl)-2-hydroxyphenyl)-2-naphthoic acid]?
Answer: fold decrease in antimicrobial activity (fold higher MIC) vs. parent compound CD437 (S. aureus strain MW2; MRSA MW2): > 30 fold; MIC (S. aureus strain MW2; [4]): 32 µg/mL (≈ 80.3 µM)

Question: Which “fold decrease in antimicrobial activity (fold higher MIC) vs. parent compound CD437” value (S. aureus strain MW2; MRSA MW2) does the source give for O=C(O)c1cc(O)c2cc(-c3ccc(O)c(C45CC6CC(CC(C6)C4)C5)c3)ccc2c1 [Analog 11, 6-(3-(adamantan-1-yl)-4-hydroxyphenyl)-4-hydroxy-2-naphthoic acid] here?
Answer: 4 fold

Question: What about the MIC (S. aureus strain MW2; [4]) of the same molecule?
Answer: 4 µg/mL (≈ 9.65 µM)

Question: With O=C(O)c1cc(O)c2cc(-c3cc(C45CC6CC(CC(C6)C4)C5)ccc3O)ccc2c1 [Analog 13, 6-(5-(adamantan-1-yl)-2-hydroxyphenyl)-4-hydroxy-2-naphthoic acid] as the molecule, how does the “fold increase in antimicrobial activity vs. Analog 10” value (S. aureus strain MW2; MRSA MW2, relative to Analog 10) read?
Answer: 8 fold

Question: And the MIC (S. aureus strain MW2; [4])?
Answer: 4 µg/mL (≈ 9.65 µM)

Question: With O=C(O)c1cc(O)c2cc(-c3ccc(O)c(C45CC6CC(CC(C6)C4)C5)c3)cc(O)c2c1 [Analog 14, 6-(3-(adamantan-1-yl)-4-hydroxyphenyl)-4,8-dihydroxy-2-naphthoic acid] as the molecule, how does the “fold decrease in antimicrobial activity vs. Analog 11” value (S. aureus strain MW2; MRSA MW2, another decrease relative to Analog 11) read?
Answer: 4 fold

Question: What about the MIC (S. aureus strain MW2; [4]) of the same molecule?
Answer: 16 µg/mL (≈ 37.2 µM)

Question: For O=C(O)c1cc(O)c2cc(-c3cc(C45CC6CC(CC(C6)C4)C5)ccc3O)cc(O)c2c1 [Analog 16, 6-(5-(adamantan-1-yl)-2-hydroxyphenyl)-4,8-dihydroxy-2-naphthoic acid], which MIC (S. aureus strain MW2; [4]) is on record?
Answer: 8 µg/mL (≈ 18.6 µM)

Question: Which growth inhibition [1] does the source give for O=C(O)c1ccc2cc(-c3ccc(O)c(C45CC6CC(CC(C6)C4)C5)c3)ccc2c1 [CD437, reference compound] here?
Answer: inhibit the growth

Question: And the MIC (S. aureus strain MW2)?
Answer: 1 µg/mL (≈ 2.51 µM)

Question: What about the morphology of bacteria [2] of the same molecule?
Answer: altered and elongated

Question: Which growth inhibition [1] does the source give for COc1ccc(-c2ccc3cc(C(=O)O)ccc3c2)cc1C12CC3CC(CC(C3)C1)C2 [adapalene] here?
Answer: not

Question: With O=C(O)/C=C/c1ccc(-c2ccc(O)c(C34CC5CC(CC(C5)C3)C4)c2)cc1 [adarotene] as the molecule, how does the excretion [3] read?
Answer: excreted rapidly

Question: Which results are given for CN[C@H](CC(C)C)C(=O)N[C@H]1C(=O)N[C@@H](CC(N)=O)C(=O)N[C@H]2C(=O)N[C@H]3C(=O)N[C@H](C(=O)N[C@H](C(=O)O)c4cc(O)cc(O)c4-c4cc3ccc4O)[C@H](O)c3ccc(c(Cl)c3)Oc3cc2cc(c3O[C@@H]2O[C@H](CO)[C@@H](O)[C@H](O)[C@H]2O[C@H]2C[C@](C)(N)[C@H](O)[C@H](C)O2)Oc2ccc(cc2Cl)[C@H]1O [vancomycin, reference compound]?
Answer: alanine aminotransferase (ALT) vs. control (Maximum tolerated dose): lack of significant differences; blood urea nitrogen (BUN) vs. control (Maximum tolerated dose): lack of significant differences

Reference: US12195424B2, “Antibiotic compounds” (The General Hospital Corporation, priority 2017, dated 2025)
